Regarding `O=C(Nc1ccc(C(CC2CCCC2)C(=O)Nc2nccs2)cc1)c1ccccc1` (stereo not drawn) [Example 1], the melting point lay in the range of 285 to 290 °C.

The molecule `O=C(Cc1cccs1)Nc1ccc(C(CC2CCCC2)C(=O)Nc2nccs2)cc1` (stereo not drawn) [Example 2, 3-Cyclopentyl-N-thiazol-2-yl-2-[4-(2-thiophen-2-yl-acetylamino)-phenyl]-propionamide] had a melting point of 220 to 221 °C.

With `O=C(Nc1nccs1)C(CC1CCCC1)c1ccc(NS(=O)(=O)c2ccc([N+](=O)[O-])cc2)cc1` (stereo not drawn) [Example 3, 3-Cyclopentyl-2-[4-(4-nitro-benzenesulfonylamino)-phenyl]-N-thiazol-2-yl-propionamide], the melting point is 120 to 125 °C.

Molecule `O=C(Nc1ccc(C(CC2CCCC2)C(=O)Nc2nccs2)cc1)c1ccncc1` (stereo not drawn) [Example 4, N-{4-[2-Cyclopentyl-1-(thiazol-2-ylcarbamoyl)-ethyl]-phenyl}-isonicotinamide] had a melting point of 225 to 230 °C.

`O=C(Nc1ccc(C(CC2CCCC2)C(=O)Nc2nccs2)cc1)c1ccc([N+](=O)[O-])cc1` (stereo not drawn) [Example 5, N-{4-[2-Cyclopentyl-1-(thiazol-2-ylcarbamoyl)-ethyl]-phenyl}-4-nitro-benzamide] registered a melting point of 236 to 238 °C.

`COC(=O)C(=O)Nc1ccc(C(CC2CCCC2)C(=O)Nc2nccs2)cc1` (stereo not drawn) [Example 6, N-{4-[2-Cyclopentyl-1-(thiazol-2-ylcarbamoyl)-ethyl]-phenyl}-oxalamic acid methyl ester] gave a melting point of 95 to 98 °C.

`CC(=O)OCC(=O)Nc1ccc(C(CC2CCCC2)C(=O)Nc2nccs2)cc1` (stereo not drawn) [Example 7, Acetic acid {4-[2-cyclopentyl-1-(thiazol-2-ylcarbamoyl)-ethyl]-phenylcarbamoyl}-methyl ester] showed a melting point of 90 to 95 °C.

As for `CN(C)S(=O)(=O)Nc1ccc(C(CC2CCCC2)C(=O)Nc2nccs2)cc1` (stereo not drawn) [Example 8, N-{4-[2-Cyclopentyl-1-(thiazol-2-ylcarbamoyl)-ethyl]-phenyl}-dimethylsulfamide], the melting point lay within 110 to 112 °C.

Take `O=C(Nc1ccc(C(CC2CCCC2)C(=O)Nc2nccs2)cc1)c1cccnc1` (stereo not drawn) [Example 9, N-{4-[2-Cyclopentyl-1-(thiazol-2-ylcarbamoyl)-ethyl]-phenyl}-nicotinamide]: the melting point fell in the range of 240 to 242 °C.

Turning to `CCOC(=O)c1csc(NC(=O)C(CC2CCCC2)c2ccc(NC(=O)c3cccnc3)cc2)n1` (stereo not drawn) [Example 10, 2-(3-Cyclopentyl-2-{4-[(pyridine-3-carbonyl)-amino]-phenyl}propionylamino)-thiazole-4-carboxylic acid ethyl ester], the melting point was in the range of 222 to 223 °C.

For the molecule `CCOC(=O)Cc1csc(NC(=O)C(CC2CCCC2)c2ccc(NC(=O)c3cccnc3)cc2)n1` (stereo not drawn) [Example 11, [2-(3-Cyclopentyl-2-{4-[(pyridine-3-carbonyl)-amino]-phenyl}-propionylamino)-thiazol-4-yl]-acetic acid ethyl ester], the melting point is 195 to 200 °C.

`CS(=O)(=O)Nc1ccc(C(CC2CCCC2)C(=O)Nc2nccs2)cc1` (stereo not drawn) [Example 12, 3-Cyclopentyl-2-(4-methanesulfonylamino-phenyl)-N-thiazol-2-yl-propionamide] had a melting point of 85 to 90 °C.

In turn, `O=C(Nc1nccs1)C(CC1CCCC1)c1ccc(NS(=O)(=O)C(F)(F)F)cc1` (stereo not drawn) [Example 13, 3-Cyclopentyl-N-thiazol-2-yl-2-(4-trifluoromethanesulfonylamino-phenyl)-propionamide] gave a melting point of 70 to 74 °C.

The molecule `O=C(Nc1ccc(C(CC2CCCC2)C(=O)Nc2ccccn2)cc1)c1cccnc1` (stereo not drawn) [Example 15, N-{4-[2-Cyclopentyl-1-(pyridin-2-ylcarbamoyl)-ethyl]-phenyl}-nicotinamide] came in with a melting point of 160 to 163 °C.

`COC(=O)c1ccc(NC(=O)C(CC2CCCC2)c2ccc(NC(=O)c3cccnc3)cc2)nc1` (stereo not drawn) [Example 16, 6-(3-Cyclopentyl-2-{4-[(pyridine-3-carbonyl)-amino]-phenyl}-propionylamino)-nicotinic acid methyl ester] came in with a melting point of 110 to 111 °C.

As a reminder, the melting point is the temperature of the solid-liquid transition.

These data come from US6489485B2, “Para-amine substituted phenylamide glucokinase activators” (Hoffmann-La Roche Inc., priority 2000, dated 2002).
